Source: the NIST ThermoML archive (doi:10.1021/je400977r)
± gives the expanded uncertainty stated by the source.

Assay: mn = molality of the nth substance listed, in mol/kg
Conditions: 101 kPa, Liquid; for speed of sound: Pulse-echo method

CC(C)C[C@H](N)C(=O)O [L-leucine] + O
Conditions | mass density, 293.15 K [kg/m3] | mass density, 298.15 K [kg/m3] | mass density, 303.15 K [kg/m3] | mass density, 308.15 K [kg/m3] | mass density, 313.15 K [kg/m3] | speed of sound, 293.15 K [m/s] | speed of sound, 298.15 K [m/s] | speed of sound, 303.15 K [m/s] | speed of sound, 308.15 K [m/s] | speed of sound, 313.15 K [m/s]
m1 = 0.025 | 998.94 ± 0.69 | 997.765 ± 0.7 | 996.352 ± 0.7 | 994.719 ± 0.7 | 992.893 ± 0.7 | 1486.2 ± 2.4 | 1500.2 ± 2.4 | 1512.3 ± 2.3 | 1522.8 ± 2.3 | 1531.7 ± 2.3
m1 = 0.05 | 999.543 ± 0.68 | 998.36 ± 0.69 | 996.938 ± 0.7 | 995.302 ± 0.7 | 993.464 ± 0.71 | 1489.2 ± 2.4 | 1502.9 ± 2.4 | 1515 ± 2.3 | 1525.4 ± 2.3 | 1534.2 ± 2.3
m1 = 0.1 | 1000.6 ± 0.68 | 999.369 ± 0.68 | 997.956 ± 0.69 | 996.293 ± 0.7 | 994.341 ± 0.7 | 1495.2 ± 2.4 | 1508.8 ± 2.3 | 1520.6 ± 2.3 | 1530.8 ± 2.3 | 1539.4 ± 2.3

OC[C@H]1O[C@H](OC[C@H]2O[C@H](O[C@]3(CO)O[C@H](CO)[C@@H](O)[C@@H]3O)[C@H](O)[C@@H](O)[C@@H]2O)[C@H](O)[C@@H](O)[C@H]1O [D-raffinose] + O
Conditions | mass density, 293.15 K [kg/m3] | mass density, 298.15 K [kg/m3] | mass density, 303.15 K [kg/m3] | mass density, 308.15 K [kg/m3] | mass density, 313.15 K [kg/m3] | speed of sound, 293.15 K [m/s] | speed of sound, 298.15 K [m/s] | speed of sound, 303.15 K [m/s] | speed of sound, 308.15 K [m/s] | speed of sound, 313.15 K [m/s]
m1 = 0.05 | 1007.77 ± 1.8 | 1006.5 ± 1.8 | 1004.91 ± 1.8 | 1003.05 ± 1.7 | 1001.02 ± 1.7 | 1491.8 ± 3.3 | 1505.7 ± 3.4 | 1517.8 ± 3.4 | 1528.3 ± 3.3 | 1537.3 ± 3.2
m1 = 0.055 | 1008.68 ± 1.8 | 1007.4 ± 1.8 | 1005.81 ± 1.8 | 1003.92 ± 1.7 | 1001.99 ± 1.7 | 1492.6 ± 3.3 | 1506.5 ± 3.4 | 1518.6 ± 3.4 | 1529.1 ± 3.3 | 1538.1 ± 3.2
m1 = 0.06 | 1009.59 ± 1.8 | 1008.29 ± 1.8 | 1006.72 ± 1.8 | 1004.79 ± 1.7 | 1002.85 ± 1.7 | 1493.5 ± 3.3 | 1507.3 ± 3.3 | 1519.4 ± 3.2 | 1529.8 ± 3.2 | 1538.8 ± 3.2
m1 = 0.065 | 1010.49 ± 1.8 | 1009.18 ± 1.8 | 1007.61 ± 1.8 | 1005.69 ± 1.7 | 1003.72 ± 1.7 | 1494.3 ± 3.3 | 1508.2 ± 3.3 | 1520.2 ± 3.3 | 1530.6 ± 3.2 | 1539.6 ± 3.2
m1 = 0.07 | 1011.48 ± 1.8 | 1010.16 ± 1.8 | 1008.56 ± 1.8 | 1006.61 ± 1.8 | 1004.62 ± 1.7 | 1495.1 ± 3.3 | 1509 ± 3.3 | 1521 ± 3.3 | 1531.4 ± 3.2 | 1540.4 ± 3.2
m1 = 0.075 | 1012.36 ± 1.8 | 1011.1 ± 1.8 | 1009.46 ± 1.8 | 1007.55 ± 1.8 | 1005.58 ± 1.7 | 1496 ± 3.4 | 1509.8 ± 3.3 | 1521.8 ± 3.3 | 1532.1 ± 3.2 | 1541.1 ± 3.2
m1 = 0.08 | 1013.3 ± 1.8 | 1011.98 ± 1.8 | 1010.34 ± 1.8 | 1008.42 ± 1.8 | 1006.46 ± 1.8 | 1496.8 ± 3.4 | 1510.6 ± 3.4 | 1522.6 ± 3.3 | 1532.9 ± 3.2 | 1541.9 ± 3.2
m1 = 0.085 | 1014.21 ± 1.8 | 1012.93 ± 1.8 | 1011.23 ± 1.8 | 1009.29 ± 1.8 | 1007.35 ± 1.8 | 1497.7 ± 3.4 | 1511.4 ± 3.4 | 1523.4 ± 3.3 | 1533.7 ± 3.3 | 1542.7 ± 3.2
m1 = 0.09 | 1015.18 ± 1.8 | 1013.88 ± 1.8 | 1012.18 ± 1.8 | 1010.25 ± 1.8 | 1008.33 ± 1.8 | 1498.5 ± 3.5 | 1512.2 ± 3.4 | 1524.2 ± 3.4 | 1534.4 ± 3.3 | 1543.4 ± 3.2
m1 = 0.1 | 1016.99 ± 1.8 | 1015.7 ± 1.8 | 1014.08 ± 1.8 | 1011.99 ± 1.8 | 1010.23 ± 1.8 | 1500.1 ± 3.5 | 1513.9 ± 3.4 | 1525.8 ± 3.3 | 1536 ± 3.3 | 1544.9 ± 3.2

O=C[C@H](O)[C@H](O)[C@H](O)CO [D-ribose] + O
Conditions | mass density, 293.15 K [kg/m3] | mass density, 298.15 K [kg/m3] | mass density, 303.15 K [kg/m3] | mass density, 308.15 K [kg/m3] | mass density, 313.15 K [kg/m3] | speed of sound, 293.15 K [m/s] | speed of sound, 298.15 K [m/s] | speed of sound, 303.15 K [m/s] | speed of sound, 308.15 K [m/s] | speed of sound, 313.15 K [m/s]
m1 = 0.05 | 1001.07 ± 0.7 | 999.887 ± 0.72 | 998.463 ± 0.72 | 996.819 ± 0.73 | 994.955 ± 0.71 | 1485.2 ± 2.4 | 1499.2 ± 2.5 | 1511.3 ± 2.4 | 1521.9 ± 2.4 | 1530.9 ± 2.3
m1 = 0.055 | 1001.36 ± 0.7 | 1000.17 ± 0.72 | 998.749 ± 0.72 | 997.103 ± 0.73 | 995.237 ± 0.71 | 1485.4 ± 2.4 | 1499.4 ± 2.5 | 1511.5 ± 2.5 | 1522 ± 2.4 | 1531 ± 2.3
m1 = 0.06 | 1001.65 ± 0.7 | 1000.47 ± 0.69 | 999.035 ± 0.69 | 997.383 ± 0.7 | 995.517 ± 0.71 | 1485.6 ± 2.4 | 1499.5 ± 2.4 | 1511.6 ± 2.4 | 1522.2 ± 2.4 | 1531.2 ± 2.3
m1 = 0.065 | 1001.94 ± 0.7 | 1000.75 ± 0.7 | 999.317 ± 0.69 | 997.667 ± 0.7 | 995.796 ± 0.71 | 1485.8 ± 2.4 | 1499.7 ± 2.4 | 1511.8 ± 2.4 | 1522.3 ± 2.4 | 1531.3 ± 2.3
m1 = 0.07 | 1002.23 ± 0.7 | 1001.04 ± 0.7 | 999.606 ± 0.69 | 997.954 ± 0.7 | 996.076 ± 0.7 | 1485.9 ± 2.4 | 1499.8 ± 2.4 | 1511.9 ± 2.4 | 1522.5 ± 2.4 | 1531.4 ± 2.4
m1 = 0.075 | 1002.52 ± 0.7 | 1001.33 ± 0.7 | 999.887 ± 0.69 | 998.237 ± 0.7 | 996.357 ± 0.7 | 1486.1 ± 2.4 | 1500 ± 2.5 | 1512 ± 2.4 | 1522.6 ± 2.4 | 1531.6 ± 2.4
m1 = 0.08 | 1002.82 ± 0.71 | 1001.62 ± 0.7 | 1000.17 ± 0.69 | 998.519 ± 0.69 | 996.637 ± 0.7 | 1486.2 ± 2.4 | 1500.1 ± 2.5 | 1512.2 ± 2.4 | 1522.7 ± 2.4 | 1531.7 ± 2.4
m1 = 0.085 | 1003.11 ± 0.71 | 1001.91 ± 0.7 | 1000.47 ± 0.69 | 998.806 ± 0.69 | 996.917 ± 0.7 | 1486.4 ± 2.4 | 1500.2 ± 2.5 | 1512.2 ± 2.5 | 1522.8 ± 2.4 | 1531.8 ± 2.4
m1 = 0.09 | 1003.4 ± 0.71 | 1002.21 ± 0.7 | 1000.75 ± 0.69 | 999.089 ± 0.69 | 997.196 ± 0.7 | 1486.5 ± 2.5 | 1500.3 ± 2.5 | 1512.4 ± 2.5 | 1523 ± 2.5 | 1532 ± 2.4
m1 = 0.1 | 1003.98 ± 0.71 | 1002.79 ± 0.68 | 1001.33 ± 0.67 | 999.652 ± 0.67 | 997.754 ± 0.69 | 1486.8 ± 2.5 | 1500.6 ± 2.5 | 1512.6 ± 2.5 | 1523.2 ± 2.5 | 1532.2 ± 2.4
